Assay results from ChEMBL document CHEMBL3886620, “Substituted imidazopyrazines as Akt kinase inhibitors” (2016).

Key:
[1] = target: RAC-alpha serine/threonine-protein kinase (Homo sapiens, UniProt P31749); test: (§1) Akt1 TR-FRET assay: His-tagged human recombinant kinase full-length Akt1 expressed in insect cells was purchased form Invitrogen (part number PV 3599). As substrate for the kinase reaction the biotinylated peptide biotin-Ahx-KKLNRTLSFAEPG (C-terminus in amide form) was used which can be purchased e.g. from the company Biosynthan GmbH (Berlin-Buch, Germany). For the assay 50 nl of a 100 fold concentrated solution of the test compound in DMSO was pipetted into a black low volume 384 well microtiter plate (Greiner Bio-One, Frickenhausen, Germany), 2 μl of a solution of Akt1 in assay buffer [50 mM TRIS/HCl pH 7.5, 5 mM MgCl2, 1 mM dithiothreitol, 0.02% (v/v) Triton X-100 (Sigma)] were added and the mixture was incubated for 15 min at 22 °C. to allow prebinding of the test compounds to the enzyme before the start of the kinase reaction. Then the kinase reaction was started by the addition of 3 μl of a solution of adenosine-tri-phosphate (ATP, 16.7 μM=>final conc. in the 5 μl assay volume is 10 μM) and substrate (1.67 μM=>final conc. in the 5 μl assay volume is 1 μM) in assay buffer and the resulting mixture was incubated for a reaction time of 60 min at 22 °C. […]
[2] = target: RAC-beta serine/threonine-protein kinase (Homo sapiens, UniProt P31751); test: as §1, with “Akt2 TR-FRET” for “Akt1 TR-FRET”, “full-length Akt2” for “full-length Akt1”, “cells and activated by PDK1” for “cells”, “purchased from” for “purchased form”, “PV 3975).” for “PV 3599).”, “of Akt2” for “of Akt1”
Chain of RAC-beta serine/threonine-protein kinase (P31751 whole entry): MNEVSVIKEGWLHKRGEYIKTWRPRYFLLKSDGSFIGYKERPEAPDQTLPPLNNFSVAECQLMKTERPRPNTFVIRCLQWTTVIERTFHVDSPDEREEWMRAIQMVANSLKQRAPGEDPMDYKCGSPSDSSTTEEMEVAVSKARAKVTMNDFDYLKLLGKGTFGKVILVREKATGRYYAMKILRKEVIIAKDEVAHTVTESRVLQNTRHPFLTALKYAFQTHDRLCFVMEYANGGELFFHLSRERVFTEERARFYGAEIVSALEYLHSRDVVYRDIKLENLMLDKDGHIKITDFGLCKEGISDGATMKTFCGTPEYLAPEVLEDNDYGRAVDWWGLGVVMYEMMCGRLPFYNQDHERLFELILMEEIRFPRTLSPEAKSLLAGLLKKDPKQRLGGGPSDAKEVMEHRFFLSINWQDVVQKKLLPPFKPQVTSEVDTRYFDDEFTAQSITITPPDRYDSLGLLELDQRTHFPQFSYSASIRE

Chain of RAC-alpha serine/threonine-protein kinase (P31749 whole entry): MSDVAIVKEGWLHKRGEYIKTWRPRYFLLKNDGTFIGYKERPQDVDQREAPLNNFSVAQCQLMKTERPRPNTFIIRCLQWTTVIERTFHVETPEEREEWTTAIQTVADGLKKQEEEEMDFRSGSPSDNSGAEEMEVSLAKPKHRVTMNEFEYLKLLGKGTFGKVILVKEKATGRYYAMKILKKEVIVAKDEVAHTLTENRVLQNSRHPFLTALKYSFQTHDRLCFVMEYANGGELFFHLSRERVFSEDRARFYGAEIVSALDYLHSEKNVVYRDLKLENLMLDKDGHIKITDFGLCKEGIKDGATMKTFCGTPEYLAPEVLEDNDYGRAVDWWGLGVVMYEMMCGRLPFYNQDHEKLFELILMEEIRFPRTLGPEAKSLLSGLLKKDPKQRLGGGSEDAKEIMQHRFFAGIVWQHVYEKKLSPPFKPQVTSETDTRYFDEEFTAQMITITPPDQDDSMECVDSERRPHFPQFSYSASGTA

IC50 [1]: 100 nM | IC50 [2]: 130 nM
SMILES: CCOC(=O)c1cn2c(-c3ccccc3)c(-c3ccc(C4(N)CCC4)cc3)nc2cn1
